In US8642593B2, “2,4-pyrimidinediamine compounds and prodrugs and their uses” (Rigel Pharmaceuticals, Inc., priority 2009, dated 2014):
Like-named read-outs stand apart in the source and are kept apart here.

Key:
[1] = system: mast cell activation induced by FcγR cross-linking (CHMC cells); experiment: LD Tryptase CHMC: tryptase release assay; assay type: cell-based, Human; conditions: for inhibition in tryptase assay, in words: prodrug
Protocol: Compounds are assayed for inhibition of mast cell activation induced by FcγR cross-linking by measuring the activity of tryptase released upon degranulation as follows:
Human mast cells are cultured and differentiated from CD38-negative progenitor cell as described in U.S. Patent Publication No. 2005/0234049, which is hereby incorporated herein by reference in its entirety. For example, 65 μL of various concentrations of the test compound are prepared in MT (137 mM NaCl, 2.7 mM KCl, 1.8 mM CaCl2, 1.0 mM MgCl2, 5.6 mM Glucose, 20 mM Hepes (pH 7.4), 0.1% Bovine Serum Albumin, (Sigma, #A4503)) containing 2% MeOH and 1% DMSO, or control buffer are added to duplicate 96-well V-bottom plates. Pelleted and re-suspended (in warm MT) CHMC cells (65 μL) are added to each 96-well plate, mixed and incubated for 1 hour at 37° C. […] MT (25 μL) is added to control wells. After a 60-minute incubation at 37° C., cells and cell debris were pelleted by centrifugation at 1000 rpm for 10 min and tryptase and leukotriene C4 levels are measured.
To measure tryptase levels, 25 μL of supernatant from each well is transferred to a fresh 96-well black bottom plate, to which 100 μL of fresh tryptase substrate solution [(Z-Ala-Lys-Arg-AMC2TFA; Enzyme Systems Products, #AMC-246)]1:2000 in tryptase assay buffer [0.1M Hepes (pH 7.5), 10% w/v Glycerol, 10 μM Heparin (Sigma H-4898) 0.01% NaN3] is added. After 30 minutes incubation at room temperature, the optical density of the plates is measured at 355 nm/460 nm on a spectrophotometric plate reader.
Compounds of the disclosure were assayed for their ability to inhibit mast cell activation induced by FcγR cross-linking by measuring the activity of tryptase released upon degranulation.

[2] = system: allergen induced basophil degranulation; experiment: CD63 Assay (BASOTEST, FACS, whole blood, anti-IgE); assay type: cell-based; conditions: whole blood, anti-IgE; Table 2, unit inferred
Protocol: Compounds are tested for the ability to inhibit allergen induced basophil degranulation. The BASOTEST® kit (Orpegen Pharma GmbH, #10-0500) is used in this assay. In a 5 mL FACS tube 105 μL of Heparinized whole blood, 25 μL of test compound solution (in DMSO) are incubated at room temperature for 30-60 minutes. To induce degranulation, 20 μL stimulation buffer (Reagent B) is added, and the tube is incubated for 10 min in a 37° C. water bath. Then, 100 μL of anti-IgE (2 μg/mL) is added, or 100 µL of washing solution (reagent A) is added (i.e., as a negative control). The tube is incubated for 20 min in a 37° C. water bath. Degranulation is then stopped by incubation on ice for 5 min. 20 μL of staining reagent (reagent F) is added, and the tube is incubated on ice in the dark for 20 min. 2 mL of room temperature lysing solution is added, and the tube is incubated at room temperature for 10 min. The tubes are spun down at 4° C. for 5 min at 1600 rpm, and the supernatant is discarded. 3 mL washing solution (reagent A) is added, and the tubes spun down at 4° C. for 5 min at 1600 rpm, and the supernatant is discarded. 200 μL washing solution is added to the remaining cell pellet, and the samples are incubated on ice in the dark until analysis (within 2 h). Analysis is performed using flow cytometry at 488 nm using the conditions specified in the BASOTEST® kit instructions to determine percentage of activated basophilic granulocytes.

[3] = human mast cells, anti-IgG stimulation, read-out: IC50 (LD Tryptase CHMC)

SMILES | IC50 [1, 3] [nM] | inhibition in tryptase assay, in words [1] | IC50 ([1]; Homo sapiens, Mast cell, Table 2, unit inferred, read-out: LD Tryptase CHMC) [nM] | IC50 [2] [nM]
CC1(C)Oc2ccc(Nc3nc(Nc4ccc(N5CCOCC5)cc4)ncc3F)nc2N(COP(=O)([O-])[O-])C1=O.[Na+].[Na+] [Compound 4, N4-[2,2-Dimethyl-4-[(dihydrogenphosphonoxy)methyl]-3-oxo-5-pyrido[1,4]oxazin-6-yl]-5-fluoro-N2-(4-morpholinophenyl)-2,4-pyrimidinediamine disodium salt] | 2360 | only micromolar inhibition |  | 
COc1cc(Nc2ncc(F)c(Nc3ccc4c(n3)NC(=O)C(C)(C)O4)n2)cc(OC)c1OC [N4-(2,2-Dimethyl-3-oxo-4H-5-pyrido[1,4]oxazin-6-yl)-5-fluoro-N2-(3,4,5-trimethoxyphenyl)-2,4-pyrimidinediamine, reference compound] |  |  | 40 | 930
CC1(C)Oc2ccc(Nc3nc(Nc4ccc(N5CCOCC5)nc4)ncc3F)nc2N(COP(=O)([O-])[O-])C1=O.[Na+].[Na+] [Compound 2, N4-[2,2-Dimethyl-4-[(dihydrogenphosphonoxy)methyl]-3-oxo-5-pyrido[1,4]oxazin-6-yl]-5-fluoro-N2-(6-morpholinopyridin-3-yl)-2,4-pyrimidinediamine disodium salt] | 21900 | only micromolar inhibition |  | 
